Experiment [1] relates to Pou5f1 transcription site (MCP-mNeonGreen nascent RNA). The experiment is described as follows: MCP-mNeonGreen nascent transcription at the endogenous Pou5f1 locus in mESCs (live-cell imaging). Format: cell-based, mouse. The protocol: All the mESCs were cultured and maintained in +2i media with appropriate selection drugs on 0.1% gelatin-coated dishes, at 37° C. in a humidified 5% CO2 incubator. +2i media contain D-MEM (Thermo Fisher Scientific 10313021), 15% fetal bovine serum (Gemini Bio 100-500), 0.1 mM β-mercaptoethanol (Thermo Fisher Scientific 21985023), 2 mM L-alanyl-L-glutamine (Thermo Fisher Scientific 35050079), 1×MEM nonessential amino acids (Thermo Fisher Scientific 11140076), 1000 U/mL LIF (Millipore ESG1107), […] (Millipore 361559) and 1 μM PD0325901 (Axon Medichem 1408). OMG and NMG SNAP-Rpb1 cells were cultured with +2i media plus 3 μg/ml α-amanitin.
(§1) Before imaging, cells were seeded onto 8-chamber coverglass (LabTek, 155411) coated with 5 μg/ml laminin (BioLamina LN511), in −2i media (OMG) or +2i media (NMG) and appropriate drugs. For SiR staining, cells were labeled with media containing 0.3 μM SiR-BG for 10 mins, at 37° C., followed by three washes with new media.
Wide-Field Cell Imaging Experiments. Live cell imaging experiments (tdPCP-EGFP and MCP-mNeonGreen tracking). For time-lapse imaging, a z-stack of 11 frames at 1 frame/second was acquired, by stepping the sample along the z-axis using the nanopositioning stage (250 nm steps). The CCD data were analyzed using IDL 6.4 (ITTVIS). Maximum projection images were calculated for each stack, and the resulting 11 sec/frame movie was used to track the intensities of individual tdPCP-EGFP-tagged transcription sites. A particle tracking routine (Crocker and Grier, 1996) was used for finding the positions of the transcription site in each frame and linking them into a 2D trajectory. The intensity trace of tdPCP-EGFP at the transcription site was corrected for photo-bleaching using the time trace of tdPCP-EGFP in a nearby nuclear region. The auto-correlation function was calculated (for the tdPCP-EGFP fluctuation analysis), or the data were imported in Origin 8.5.0 (OriginLab) and the trace fitted to a single-exponential decay (for the transcription inhibition experiments).

The target in experiment [2] is T1, Brd4 foci at the Pou5f1 locus (Mus musculus, UniProt Q9ESU6).
T1 construct: integrating a SNAP-tag at the N-terminus of the endogenous Brd4; endogenous in cells; host or cells: mouse ESCs OMG-1, homozygous SNAP-Brd4 knock-in clone 9 (printed as 'OMG SNAP-Cdk9 clone 9')
The experiment is described as follows: Brd4 cluster signal at Pou5f1 upon inhibition (live-cell confocal/STED scans). As to conditions: Pou5f1. The experiment is classed as cell-based. Here is the method:
For real-time confocal and STED imaging, example implementations may program the wave generator to scan 2 μm×2 μm or 1 μm×1 μm xy areas in 0.8 sec or 0.2 sec respectively. 3D scanning was performed (via, e.g., detection system 150) by acquiring 5 xy scans while moving the stage by 0.5 μm in z between scans. TTL pulses corresponding to single-photon events from the APDs, together with the trigger pulses from the wave generator were detected using a field-programmable gate array (FPGA) data acquisition system (National Instruments, PCIe-7852R).
as §1
To generate OMG or NMG SNAP-Brd4 targeted cells, OMG-1 or NMG mESCs (1×106) were transfected with 10 μg SNAP-Brd4 donor vector and 0.6 μg espCas9-gRNA-Brd4 vector. 10 days after transfection, the cells were trypsinized, labeled with SiR-BG and subjected to FACS, generating a first-round SiR-positive pool. This pool was then expanded, stained with SiR-BG and subjected to second FACS round and individual clones were picked and expanded.

For experiment [3], the system named is H3K27ac at the Pou5f1 locus. Nature of the experiment: ChIP-qPCR analysis of H3K27ac after A-485 treatment. Format: cell-based, mouse. As to conditions: for H3K27ac characteristic decay time: 1 μM A-485. The protocol:
ChIP-qPCR analysis of H3K27ac after A-485 treatment. For H3K27ac and H3 ChIP-qPCR experiments, confluent 10 cm dishes (˜3×10^6 OMG SNAP-Sox2 cells) were treated with 1 μM A-485 (Structural Genomics Consortium) or 0.1% v/v DMSO for the indicated times. Fixation, cell lysis, sonicated chromatin preparation, immunoprecipitation and qPCR analysis were performed as described for OMG SNAP-Rpb1 cells in the previous section, with the exception that 5 μg H3K27ac antibody (Active Motif 39685) or 5 μg H3 antibody (Active Motif 39763) were used for each IP respectively.

The subject of experiment [4] is Sox2 foci at the Pou5f1 locus. The experiment is described as follows: Sox2 cluster signal at Pou5f1 upon inhibition (live-cell confocal/STED scans). Format: cell-based, mouse. As to conditions: Pou5f1. The text has this: Contrary to Brd4, Med22 and Cdk9, Sox2 clustering persists through transcription inhibition by either JQ1 or FVP (FIG. 8D). The differential sensitivities between factors and modes of transcription inhibition unveil a hierarchy of molecular transactions that control Pou5f1 transcription: Sox2 binding occurs upstream of Cdk9/Med22/Brd4 recruitment and accumulation of all of 4 regulatory factors occurs upstream of Pol II release into productive elongation. […] For real-time confocal and STED imaging, example implementations may program the wave generator to scan 2 μm×2 μm or 1 μm×1 μm xy areas in 0.8 sec or 0.2 sec respectively. 3D scanning was performed (via, e.g., detection system 150) by acquiring 5 xy scans while moving the stage by 0.5 μm in z between scans. TTL pulses corresponding to single-photon events from the APDs, together with the trigger pulses from the wave generator were detected using a field-programmable gate array (FPGA) data acquisition system (National Instruments, PCIe-7852R). Before imaging, cells were seeded onto 8-chamber coverglass (LabTek, 155411) coated with 5 μg/ml laminin (BioLamina LN511), in -2i media (OMG) or +2i media (NMG) and appropriate drugs. For SiR staining, cells were labeled with media containing 0.3 μM SiR-BG for 10 mins, at 37° C., followed by three washes with new media. Targeted integration of SNAP-tag in the endogenous Sox2, Cdk9, Brd4 and Med22 genes. To generate OMG or NMG SNAP-Sox2 targeted cells, OMG-1 or NMG mESCs (1×106) were transfected with 10 μg SNAP-Sox2 donor vector and 0.6 μg […] vector. 10 days after transfection, the cells were trypsinized, labeled with 0.3 μM SiR-BG for 10 mins, rinsed three times with new media, followed by immediate fluorescence-activated cell sorting (FACS). All the SiR-positive cells were collected, expanded for 2 weeks, trypsinized, labeled with SiR-BG and sorted again. Almost 100% SNAP positive pools were obtained from the second round of sorting and individual clones were picked and expanded. Homozygous clones (dubbed “OMG SNAP-Sox2 clone 8” and NMG SNAP-Sox2 clone 3'' respectively) with both Sox2 alleles correctly targeted with SNAP-tag integrations and that show SiR nuclear staining were selected for all further experiments.

Several values for one entry are separate records, joined by “and”; a condition that tells them apart may be missing. Identical values can stand only once.

We go through 1 molecule from patent publication US12031897B2, “Target-locking single-molecule nanoscopy” (Memorial Sloan Kettering Cancer Center, priority 2019, dated 2024).

In the case of `CNC(=O)Nc1ccc2c(c1)CC[C@@]21OC(=O)N(CC(=O)N(Cc2ccc(F)cc2)[C@@H](C)C(F)(F)F)C1=O` [A-485], in experiment [1] (1 μM A-485), the “time until nascent Pou5f1 transcription shuts down” value was at most 20 min. Also, the “MCP decay time upon p300/CBP HAT inhibition” value in experiment [1] (Pou5f1, mESCs, 1 μM A-485, mean±S.D., n=17) is 635 s and 635 ± 350 s. In experiment [1] (Pou5f1, upon A-485 inhibition), this molecule displayed a transcription shutdown time-scale of 10.5 min. For the same molecule, in experiment [1] (intermediate [A-485] or [JQ1]), the “response of individual Pou5f1 transcription sites at intermediate inhibitor concentration” value is “all-or-none responses”. The “Brd4 signal exponential fit τ” value in experiment [2] (inhibition with 1 μM A-485 (FIG. 16J legend)) was 8 ± 1 s. In experiment [2] (upon A-485 inhibition), the “Brd4 cluster shrinking time” value is given as 8 min. Moreover, the “H3K27ac characteristic decay time” value in experiment [3] (primer pair 4) is 7 ± 2 min; in experiment [3] (primer pair 5), 7 ± 4 min; in experiment [3] (primer pair 6), 5 ± 1 min; in experiment [3] (primer pair 7), 13 ± 4 min. Moreover, the “H3K27ac loss kinetics” value in experiment [3] (upon A-485 inhibition) is around 7 min. In experiment [4] (upon A-485 inhibition), the “Sox2 cluster size characteristic decay time” value is 12.5 min. Further, the “Sox2 signal exponential fit τ” value in experiment [4] (upon adding 1 μM A-485 (FIG. 8I legend)) turned out to be 12.5 ± 8.6 s.
